Data set [1] can be described thus: Cytotoxicity against human PANC1 cells assessed as growth inhibition after 48 hrs by MTT assay. Format: cell-based, PANC-1. The conditions noted are these: for GI50 at 48 h: PANC1 cells; for GI90: panc-1, 48 h. (In general: Tetrazolium assays rely on reduction of a dye to a coloured formazan, in cell work by metabolically active cells.)
Data set [2] is described as follows: Selectivity index, ratio of GI50 for human THP1 cells to MIC for dormant phase Mycobacterium tuberculosis H37Ra ATCC 25177. The conditions noted are these: read-out: Selectivity Index. In kind it is toxicity, cell-based, THP-1.
Data set [3] can be described thus: Antioxidant activity assessed as DPPH radical scavenging activity after 30 mins by spectrophotometric analysis. In kind it is physicochemical. A general note: Loss of DPPH colour is used to gauge radical scavenging.
The nature of data set [4]: Cytotoxicity against human THP1 cells assessed as growth inhibition after 48 hrs by MTT assay. The conditions noted are these: for GI50 at 48 h: THP1 cells; for GI90: thp-1, 48 h. Format: cell-based, THP-1.
Data set [5] can be described thus: (§1) Cytotoxicity against human A549 cells assessed as growth inhibition after 48 hrs by MTT assay. In kind it is cell-based. The conditions noted are these: A549 cells.
The next data set concerns A549. Described as §1. Format: cell-based. The conditions noted are these: a549, 48 h.
The nature of data set [6]: Selectivity index, ratio of GI50 for human A549 cells to MIC for dormant phase Mycobacterium tuberculosis H37Ra ATCC 25177. Format: toxicity, cell-based. The conditions noted are these: read-out: Selectivity Index.
The nature of data set [7]: Selectivity index, ratio of GI50 for human PANC1 cells to MIC for dormant phase Mycobacterium tuberculosis H37Ra ATCC 25177. Format: toxicity, cell-based, PANC-1. The conditions noted are these: read-out: Selectivity Index.
Data set [8] relates to Mycobacterium tuberculosis. The data set can be described thus: Antitubercular activity against dormant phase Mycobacterium tuberculosis H37Ra ATCC 25177 incubated for 12 days by XTT reduction menadione assay. Format: functional, organism-based. The conditions noted are these: 288 h.

≈ marks a conversion by molar mass, not a printed value.

The record followed here is ChEMBL document CHEMBL3739373, “1,2,3-Triazole derivatives as antitubercular agents: synthesis, biological evaluation and molecular docking study” (Medchemcomm, 2015).

Usually GI50 stands for the concentration giving 50% growth inhibition. As usually defined, the IC50 is the point on the concentration scale where inhibition reaches its midpoint. A word on the MIC: it is the smallest concentration in the dilution series that meets the test's criterion for growth inhibition. Read a high MIC as weaker potency.

Consider `O=[N+]([O-])c1ccc(Cn2cc(COc3ccc(Cl)cc3)nn2)cc1`, for which the GI50 at 48 h is more than 100 mg/L in data set [1], 31.1 mg/L (≈ 90.2 µM) in data set [4] and more than 100 mg/L in data set [5]. Also, the GI90 in data set [1] was more than 100 mg/L; in data set [4], 88.9 mg/L (≈ 258 µM); in the data set on A549 it was more than 100 mg/L. For the same compound, the results for the selectivity ratio in data set [2], in [6] and in data set [7] were 1.1, more than 3.6 and more than 3.6, respectively. In addition, the results for the IC50 in [3] and in [8] were 24.2 mg/L (≈ 70.2 µM) and 3.6 mg/L (≈ 10.4 µM), respectively. This compound also registered a minimal inhibitory concentration (MIC) in data set [8] of 27.5 mg/L (≈ 79.8 µM).

Consider `Clc1ccc(Cn2cc(COc3ccccc3)nn2)cc1`, for which the GI50 at 48 h in data set [1] was more than 100 mg/L; in data set [4], 36.4 mg/L (≈ 121 µM); in data set [5] it was more than 100 mg/L. Moreover, the GI90 (in [1]; in [4]; in the data set with A549) was more than 100 mg/L throughout. Besides, the selectivity ratio in data set [2] was 1.2; in data set [6] it was more than 3.3; in data set [7] it was more than 3.3. For the same compound, the results for the half-inhibitory concentration (IC50) in data set [3] and in data set [8] were 26.1 mg/L (≈ 87.1 µM) and 3.5 mg/L (≈ 11.7 µM), respectively. For the same compound, the minimum inhibitory concentration (MIC) in data set [8] amounted to 29.9 mg/L (≈ 99.7 µM).

As for `Clc1ccc(Cn2cc(COc3ccc(Cl)cc3)nn2)cc1`, the GI50 at 48 h in [1] was more than 100 mg/L; in [4] it was 17.4 mg/L (≈ 52.1 µM); in data set [5], more than 100 mg/L. For the same compound, the GI90 is more than 100 mg/L in data set [1], 89.7 mg/L (≈ 268 µM) in data set [4] and more than 100 mg/L in the data set on A549. The selectivity ratio in data set [2] is 2.1; in [6], more than 12.2; in [7] it was more than 12.2. In addition, the half-inhibitory concentration (IC50) in data set [3] came out at 26.1 mg/L (≈ 78.1 µM); in data set [8], 0.7 mg/L (≈ 2.09 µM). Further, in data set [8], it took 8.2 mg/L (≈ 24.5 µM) to inhibit growth (MIC).

As for `Brc1ccc(Cn2cc(COc3ccccc3)nn2)cc1`, the GI50 at 48 h is more than 100 mg/L in data set [1], 16.2 mg/L (≈ 47.1 µM) in data set [4] and more than 100 mg/L in data set [5]. Further, the GI90 in data set [1] is more than 100 mg/L; in [4] it was 68.3 mg/L (≈ 198 µM); with A549 it was more than 100 mg/L. In addition, the selectivity ratio is 0.6 in data set [2], more than 3.5 in data set [6] and more than 3.5 in data set [7]. Besides, the half-inhibitory concentration (IC50) was 18.3 mg/L (≈ 53.2 µM) in [3] and 3.2 mg/L (≈ 9.3 µM) in data set [8]. In data set [8], this compound came in with an MIC of 28.9 mg/L (≈ 84 µM).

For the compound `Cc1cc(OCc2cn(Cc3ccc(Cl)cc3)nn2)ccc1Cl`, the GI50 at 48 h in [1] is more than 100 mg/L; in data set [4], 31.2 mg/L (≈ 89.6 µM); in data set [5], more than 100 mg/L. The GI90 is more than 100 mg/L in [1], 88.1 mg/L (≈ 253 µM) in data set [4] and more than 100 mg/L in the data set with A549. In addition, the selectivity ratio in [2] is 1.2; in [6], more than 3.7; in [7], more than 3.7. Besides, the results for the IC50 in data set [3] and in data set [8] were 11.4 mg/L (≈ 32.7 µM) and 0.2 mg/L (≈ 0.574 µM), respectively. In data set [8], this compound showed an MIC of 26.9 mg/L (≈ 77.2 µM).

In the case of `O=[N+]([O-])c1ccc(Cn2cc(COc3ccccc3)nn2)cc1`, the concentration for 50% growth inhibition (GI50) at 48 h was more than 100 mg/L in [1], 62.9 mg/L (≈ 203 µM) in data set [4] and more than 100 mg/L in [5]. Besides, the GI90 (in data set [1]; in [4]; in the data set with A549) was more than 100 mg/L in each case. Besides, the selectivity ratio is 2.2 in data set [2], more than 3.6 in [6] and more than 3.6 in [7]. In addition, the half-maximal inhibitory concentration (IC50) in data set [3] is 10.1 mg/L (≈ 32.5 µM); in [8] it was 1.7 mg/L (≈ 5.48 µM). It took 28 mg/L (≈ 90.2 µM) to inhibit growth in [8] (MIC).

Take `Clc1ccc(Cn2cc(COc3c(Cl)cc(Cl)cc3Cl)nn2)cc1`: the GI50 at 48 h in [1] is more than 100 mg/L; in data set [4] it was 25.1 mg/L (≈ 62.3 µM); in data set [5] it was more than 100 mg/L. The GI90 (in data set [1]; in [4]; with A549) was more than 100 mg/L throughout. Moreover, the selectivity ratio in data set [2] was 3.2; in data set [6], more than 12.9; in [7], more than 12.9. In addition, the results for the IC50 in [3] and in data set [8] were 27.2 mg/L (≈ 67.5 µM) and 0.8 mg/L (≈ 1.98 µM), respectively. The same compound had a minimal inhibitory concentration (MIC) in [8] of 7.7 mg/L (≈ 19.1 µM).
